Columns and labels:
[1] = target: T1, Alpha-1B adrenergic receptor (Rattus norvegicus, UniProt P15823); experiment: DRUGMATRIX: Alpha-1B adrenergic receptor radioligand binding (ligand: prazosin); format: cell membranes, Wistar, Liver, Membrane; settings: Not Active = under 50% inhibition at 10 µM
T1 sequence (P15823 whole entry): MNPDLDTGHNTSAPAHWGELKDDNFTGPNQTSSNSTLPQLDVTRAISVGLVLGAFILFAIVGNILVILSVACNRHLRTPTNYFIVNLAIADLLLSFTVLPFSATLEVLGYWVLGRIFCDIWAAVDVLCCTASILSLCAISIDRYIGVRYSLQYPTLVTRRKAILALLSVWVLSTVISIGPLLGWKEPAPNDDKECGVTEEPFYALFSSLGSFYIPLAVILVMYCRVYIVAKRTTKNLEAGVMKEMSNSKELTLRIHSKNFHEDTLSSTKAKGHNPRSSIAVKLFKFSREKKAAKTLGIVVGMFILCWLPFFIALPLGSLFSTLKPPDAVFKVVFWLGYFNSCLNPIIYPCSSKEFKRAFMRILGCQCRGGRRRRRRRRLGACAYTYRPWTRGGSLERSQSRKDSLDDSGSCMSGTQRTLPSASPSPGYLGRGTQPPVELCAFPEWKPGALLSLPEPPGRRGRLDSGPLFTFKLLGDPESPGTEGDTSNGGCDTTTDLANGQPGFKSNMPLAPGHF

[2] = DRUGMATRIX: Atrial Natriuretic Factor (ANF) radioligand binding (ligand: [125I] ANF (rat)); format: cell membranes, Cavia porcellus, Dunkin-Hartley, Adrenal gland, Membrane; settings: Not Active = under 50% inhibition at 10 µM
[3] = target: T2, 5-hydroxytryptamine receptor 2C (Homo sapiens, UniProt P28335); experiment: DRUGMATRIX: Serotonin (5-Hydroxytryptamine) 5-HT2C radioligand binding (ligand: [3H] Mesulergine); format: cell membranes, CHO-K1, Membrane; settings: cho-k1; Not Active = under 50% inhibition at 10 µM
T2 sequence (P28335 whole entry): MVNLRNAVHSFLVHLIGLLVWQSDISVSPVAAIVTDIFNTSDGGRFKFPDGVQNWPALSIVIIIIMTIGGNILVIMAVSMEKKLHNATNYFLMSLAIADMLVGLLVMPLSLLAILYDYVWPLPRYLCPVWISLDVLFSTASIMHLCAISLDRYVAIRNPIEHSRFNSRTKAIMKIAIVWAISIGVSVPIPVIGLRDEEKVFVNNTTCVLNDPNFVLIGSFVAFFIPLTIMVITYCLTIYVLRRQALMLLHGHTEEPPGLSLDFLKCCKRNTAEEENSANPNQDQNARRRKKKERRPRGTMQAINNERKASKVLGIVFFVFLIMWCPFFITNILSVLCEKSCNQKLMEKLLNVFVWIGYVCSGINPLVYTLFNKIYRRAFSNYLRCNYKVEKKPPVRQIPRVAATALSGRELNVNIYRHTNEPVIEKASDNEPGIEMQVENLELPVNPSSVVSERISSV

[4] = target: T3, C-X-C chemokine receptor type 1 (Homo sapiens, UniProt P25024); note: in other assays of this panel Not Active means under 50% inhibition at 10 µM
T3 sequence (P25024 whole entry): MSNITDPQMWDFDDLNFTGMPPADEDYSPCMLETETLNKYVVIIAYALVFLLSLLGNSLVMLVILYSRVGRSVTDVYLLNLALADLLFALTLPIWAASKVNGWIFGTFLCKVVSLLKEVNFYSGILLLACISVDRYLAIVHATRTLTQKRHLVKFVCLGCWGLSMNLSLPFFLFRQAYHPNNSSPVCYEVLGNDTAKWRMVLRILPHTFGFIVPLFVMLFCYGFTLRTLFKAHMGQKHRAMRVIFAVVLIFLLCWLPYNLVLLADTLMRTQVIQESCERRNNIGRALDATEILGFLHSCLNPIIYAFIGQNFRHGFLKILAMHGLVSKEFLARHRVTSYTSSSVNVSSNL

Endothelin-1 receptor = target: T4, Endothelin-1 receptor (Homo sapiens, UniProt P25101); format: cell membranes, Membrane; settings: cho-k1; note: in other assays of this panel Not Active means under 50% inhibition at 10 µM
T4 sequence (P25101 whole entry): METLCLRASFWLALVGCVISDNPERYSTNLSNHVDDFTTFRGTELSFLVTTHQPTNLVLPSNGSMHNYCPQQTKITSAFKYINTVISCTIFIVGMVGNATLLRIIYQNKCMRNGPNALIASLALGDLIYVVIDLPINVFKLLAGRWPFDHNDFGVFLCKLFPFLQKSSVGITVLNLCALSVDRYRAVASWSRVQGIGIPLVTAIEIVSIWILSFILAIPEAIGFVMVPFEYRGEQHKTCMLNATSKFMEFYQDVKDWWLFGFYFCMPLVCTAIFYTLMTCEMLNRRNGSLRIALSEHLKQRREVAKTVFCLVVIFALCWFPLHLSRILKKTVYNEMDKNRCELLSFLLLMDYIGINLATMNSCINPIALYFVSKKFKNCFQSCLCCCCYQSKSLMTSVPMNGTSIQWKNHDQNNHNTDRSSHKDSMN

Leukotriene C4 synthase = target: T5, Leukotriene C4 synthase (Cavia porcellus, UniProt A6XA80); experiment: biochemical; format: tissue-based, Lung;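 note: enzyme inhibition assay of leukotriene C4 synthase, using LTA4 as the substrate; in other assays of this panel Not Active means under 50% inhibition at 10 µM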
T5 sequence (A6XA80 whole entry): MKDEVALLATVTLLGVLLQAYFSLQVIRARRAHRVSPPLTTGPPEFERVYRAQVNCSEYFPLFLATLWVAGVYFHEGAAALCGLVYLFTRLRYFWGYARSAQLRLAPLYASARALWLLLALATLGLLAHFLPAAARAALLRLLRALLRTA

[5] = target: T6, Polyunsaturated fatty acid lipoxygenase ALOX15 (Oryctolagus cuniculus, UniProt P12530); experiment: biochemical; format: tissue-based, Reticulocytes; settings: reticulocytes;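 note: inhibition of 15-lipoxygenase enzyme activity measured with linoleic acid as the substrate; in other assays of this panel Not Active means under 50% inhibition at 10 µM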
T6 sequence (P12530 whole entry): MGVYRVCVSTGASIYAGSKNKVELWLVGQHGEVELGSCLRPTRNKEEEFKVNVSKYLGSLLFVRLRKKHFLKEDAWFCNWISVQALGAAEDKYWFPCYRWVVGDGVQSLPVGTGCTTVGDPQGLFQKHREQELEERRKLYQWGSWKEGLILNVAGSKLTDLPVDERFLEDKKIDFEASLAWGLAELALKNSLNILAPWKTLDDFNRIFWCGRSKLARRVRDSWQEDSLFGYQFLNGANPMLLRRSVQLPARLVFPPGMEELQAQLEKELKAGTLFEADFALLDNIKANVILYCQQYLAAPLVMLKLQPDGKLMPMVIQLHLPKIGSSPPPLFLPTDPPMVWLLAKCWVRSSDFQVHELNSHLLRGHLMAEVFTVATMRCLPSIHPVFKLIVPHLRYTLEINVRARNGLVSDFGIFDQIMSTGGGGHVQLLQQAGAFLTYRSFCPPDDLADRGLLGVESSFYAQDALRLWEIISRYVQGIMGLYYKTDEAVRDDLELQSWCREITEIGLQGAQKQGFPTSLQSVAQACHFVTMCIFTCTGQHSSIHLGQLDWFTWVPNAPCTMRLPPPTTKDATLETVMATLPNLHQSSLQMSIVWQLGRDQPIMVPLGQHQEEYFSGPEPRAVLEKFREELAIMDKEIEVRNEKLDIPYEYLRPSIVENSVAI

[6] = target: Protein kinase C alpha type (Homo sapiens, UniProt P17252); format: cell-based; settings: sf9
Acetylcholinesterase = Acetylcholinesterase (Homo sapiens, UniProt P22303); experiment: DRUGMATRIX: Acetylcholinesterase enzyme inhibition (substrate: acetylthiocholine); format: cell-based, HEK293; settings: hek293; Not Active = under 50% inhibition at 10 µM
Sequence of Acetylcholinesterase (P22303 whole entry): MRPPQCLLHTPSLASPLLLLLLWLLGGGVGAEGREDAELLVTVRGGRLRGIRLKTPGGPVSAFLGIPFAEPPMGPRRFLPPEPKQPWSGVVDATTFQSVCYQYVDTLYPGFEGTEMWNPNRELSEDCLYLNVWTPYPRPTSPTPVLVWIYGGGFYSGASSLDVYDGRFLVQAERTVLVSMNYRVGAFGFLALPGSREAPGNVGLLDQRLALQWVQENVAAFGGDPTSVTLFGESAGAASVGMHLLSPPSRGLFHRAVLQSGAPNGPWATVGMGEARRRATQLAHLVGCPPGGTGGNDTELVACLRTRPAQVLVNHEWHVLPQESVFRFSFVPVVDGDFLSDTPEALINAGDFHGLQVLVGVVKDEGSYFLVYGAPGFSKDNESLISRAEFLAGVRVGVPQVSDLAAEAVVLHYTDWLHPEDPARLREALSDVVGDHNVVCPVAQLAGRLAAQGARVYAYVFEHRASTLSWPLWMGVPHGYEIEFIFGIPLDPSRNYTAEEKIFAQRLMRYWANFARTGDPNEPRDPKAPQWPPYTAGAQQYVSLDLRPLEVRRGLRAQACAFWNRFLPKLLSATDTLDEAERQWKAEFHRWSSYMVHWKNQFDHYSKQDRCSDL

Cc1cc(NS(=O)(=O)c2ccc(N)cc2)no1 [SULFAMETHOXAZOLE]
Not Active: IC50 [1] | IC50 [2] | Ki [2] | IC50 [3] | IC50 [4] | IC50 (Endothelin-1 receptor) | IC50 (Leukotriene C4 synthase) | IC50 [5] | IC50 [6] | IC50 (Acetylcholinesterase)

Nc1ccc(S(N)(=O)=O)cc1 [SULFANILAMIDE]
Not Active: IC50 [1] | IC50 [2] | Ki [2] | IC50 [3] | IC50 [4] | IC50 (Endothelin-1 receptor) | IC50 (Leukotriene C4 synthase) | IC50 [5] | IC50 [6] | IC50 (Acetylcholinesterase)

Nc1ccc(S(=O)(=O)Nc2ccnn2-c2ccccc2)cc1 [SULFAPHENAZOLE]
Not Active: IC50 [1] | IC50 [2] | Ki [2] | IC50 [3] | IC50 [4] | IC50 (Endothelin-1 receptor) | IC50 (Leukotriene C4 synthase) | IC50 [5] | IC50 [6] | IC50 (Acetylcholinesterase)

C=CC[C@@H]1/C=C(\C)C[C@H](C)C[C@H](OC)[C@H]2O[C@@](O)(C(=O)C(=O)N3CCCC[C@H]3C(=O)O[C@H](/C(C)=C/[C@@H]3CC[C@@H](O)[C@H](OC)C3)[C@H](C)[C@@H](O)CC1=O)[C@H](C)C[C@@H]2OC [TACROLIMUS ANHYDROUS]
Not Active: IC50 [1] | IC50 [2] | Ki [2] | IC50 [3] | IC50 [4] | IC50 (Endothelin-1 receptor) | IC50 (Leukotriene C4 synthase) | IC50 [5] | IC50 [6] | IC50 (Acetylcholinesterase)

CC1CN(c2cc3c(cc2F)c(=O)c(C(=O)O)cn3-c2ccc(F)cc2F)CCN1 (stereo not given) [TEMAFLOXACIN]
Not Active: IC50 [1] | IC50 [2] | Ki [2] | IC50 [3] | IC50 [4] | IC50 (Endothelin-1 receptor) | IC50 (Leukotriene C4 synthase) | IC50 [5] | IC50 [6] | IC50 (Acetylcholinesterase)

CC(C)(C)NCC(O)c1cc(O)cc(O)c1 (stereo not given) [TERBUTALINE]
Not Active: IC50 [1] | IC50 [2] | Ki [2] | IC50 [3] | IC50 [4] | IC50 (Endothelin-1 receptor) | IC50 (Leukotriene C4 synthase) | IC50 [5] | IC50 [6] | IC50 (Acetylcholinesterase)

CN(C)[C@@H]1C(O)=C(C(N)=O)C(=O)[C@@]2(O)C(O)=C3C(=O)c4c(O)cccc4[C@@](C)(O)[C@H]3C[C@@H]12 [TETRACYCLINE]
Not Active: IC50 [1] | IC50 [2] | Ki [2] | IC50 [3] | IC50 [4] | IC50 (Endothelin-1 receptor) | IC50 (Leukotriene C4 synthase) | IC50 [5] | IC50 [6] | IC50 (Acetylcholinesterase)

c1ccc2[nH]c(-c3cscn3)nc2c1 [THIABENDAZOLE]
Not Active: IC50 [1] | IC50 [2] | Ki [2] | IC50 [3] | IC50 [4] | IC50 (Endothelin-1 receptor) | IC50 (Leukotriene C4 synthase) | IC50 [5] | IC50 [6] | IC50 (Acetylcholinesterase)

Cc1ccc(C(=O)C(C)CN2CCCCC2)cc1 (stereo not given) [TOLPERISONE]
Not Active: IC50 [1] | IC50 [2] | Ki [2] | IC50 [3] | IC50 [4] | IC50 (Endothelin-1 receptor) | IC50 (Leukotriene C4 synthase) | IC50 [5] | IC50 [6] | IC50 (Acetylcholinesterase)

NC(CO)(CO)CO [TROMETHAMINE]
Not Active: IC50 [1] | IC50 [2] | Ki [2] | IC50 [3] | IC50 [4] | IC50 (Endothelin-1 receptor) | IC50 (Leukotriene C4 synthase) | IC50 [5] | IC50 [6] | IC50 (Acetylcholinesterase)

CN1[C@@H]2CC[C@H]1C[C@@H](OC(=O)c1c[nH]c3ccccc13)C2 [TROPISETRON]
Not Active: IC50 [1] | IC50 [2] | Ki [2] | IC50 [3] | IC50 [4] | IC50 (Endothelin-1 receptor) | IC50 (Leukotriene C4 synthase) | IC50 [5] | IC50 [6] | IC50 (Acetylcholinesterase)

COc1cc(C(=O)NC2CCCNC2)cc(OC)c1OC (stereo not given) [TROXIPIDE]
Not Active: IC50 [1] | IC50 [2] | Ki [2] | IC50 [3] | IC50 [4] | IC50 (Endothelin-1 receptor) | IC50 (Leukotriene C4 synthase) | IC50 [5] | IC50 [6] | IC50 (Acetylcholinesterase)

CC(C)[C@H](N)C(=O)OCCOCn1cnc2c(=O)nc(N)[nH]c21 [VALACYCLOVIR]
Not Active: IC50 [1] | IC50 [2] | Ki [2] | IC50 [3] | IC50 [4] | IC50 (Endothelin-1 receptor) | IC50 (Leukotriene C4 synthase) | IC50 [5] | IC50 [6] | IC50 (Acetylcholinesterase)

Source: ChEMBL document CHEMBL1909046, “DrugMatrix in vitro pharmacology data”
